Test results taken from EP1380574B1, “9-aminoacridine derivates and process for the preparation thereof” (Samjin Pharmaceutical Co., Ltd., priority 1998, dated 2000).
Converted amounts (≈) assume the structure as drawn.

Legend:
Topoisomerase II = test: Inhibition of Topoisomerase II activity (DNA relaxation assay / DNA cleavage assay with supercoiled pBR322 DNA); type: biochemical; conditions: Topo II, 30 minutes at 37°C, table does not say which of the two assays
Protocol: Experimental 3 : Inhibition effects against the Topoisomerase II activities
The present compounds were tested for inhibition of Topoisomerase II activity by means of the relaxation assay using supercoiled pBR322 DNA as the substrate. Topo II and a sample inhibitor were added to a reaction system (50mmol Tris-HCl, pH 7.5, 50mmol KCl, 20mmol MgCl2, 0.5mmol EDTA, 2mmol ATP, 60µg/mℓ BSA) containing supercoiled pBR322 DNA and reacted for 30 minutes at 37°C. Then, a quarter by volume of Stop buffer (5% SDS, 50mmol EDTA, 30% glycerol, 0.1mg/mℓ xylene cyanol, 0.1mg/mℓ BPB) was added to the reaction system to stop the reaction. The resulting product went through electrophoresis on 0.7% agarose gel and was stained by ethidium bromide solution. Mobility of DNA was measured under ultraviolet rays.
Topo II and a sample inhibitor were added to cleavage buffer (30mmol Tris-HCl, pH 7.5, 60mmol KCl, 10mmol MgCl2, 15mmol β -mercaptoethanol, 30µg/mℓ BSA) containing supercoiled pBR322 DNA and allowed to react for 30 minutes at 37°C. Then, […] by 1% was added to the reaction system to stop the reaction. Then, proteinase K was added thereto up to the concentration of 50 µg/mℓ and allowed to react for 30 minutes at 56°C. The reaction product was treated with phenol/chloroform to purify DNA, and the obtained DNA was loaded on agarose gel electrophoresis, transferred to nitrocellulose membrane and hybridized with probe DNA labelled with radioisotope. Then, the nitrocellulose membrane was covered with an X-ray film and exposed to be sensitized and developed, whereby the degree of cleavage of DNA was measured.

[1] = test system: A549 (human non-small lung cell); test: In vitro antitumor effect against human tumor cell lines, SRB assay; type: cell-based; conditions: A 549 cells, 48 hours with drug
Protocol: (§1) Experimental 1 : In vitro antitumor effect against human tumor cell lines.
(§2) A. Tumor cell lines : A549 (human non-small lung cell)
(§3) • SKOV-3 (human ovarian) • HCT-15 (human colon) • XF-498 (human CNS) • SKMEL-2 (human melanoma)
(§4) • a. Human solid tumor cell lines, A549(non-small lung cell), SKMEL-2(melanoma), HCT-15(colon), SKOV-3(ovarian) and XF-498(CNS) were cultured in 5% CO2 incubators using the RPMI 1640 media containing 10% FBS at 37°C, while with transfer-culturing successively once or twice per week. Cell cultures were dissolved in a solution of 0.25% trysin and 3 mmol CDTA PBS(-) to separate the cells sticked on the culture media. • b. 5× 10^3∼2× 10^4 cells were added into each well of 96-well plate and cultured in 5% CO2 incubator at 37°C for 24 hours. • c. Each sample drug was dissolved in a little DMSO and diluted with the used medium to a prescribed concentration for experiment, while the final concentration of DMSO was adjusted below 0.5%. • d. Medium of each well cultured for 24 hours as above b. was removed by aspiration. Each 200µl of drug samples prepared in c. was added into each well and the wells were cultured for 48 hours. Tz (time zero) plates were collected at the point of time drugs were added. • e. According to the SRB assay method, cell fixing with TCA, staining with 0.4% SRB solution, washing with 1% acetic acid and elution of dye with 10mmol Tris solution were carried out on Tz plates and culture-ended plates, and then, OD values were measured at 520 nm.
(§5) • a. Time zero(Tz) value was determined with measuring the SRB protein value at the point of time drugs were added. • b. Control value (C) was determined with the OD value of an well untreated with drug. • c. Drug-treated test value (T) was determined with the OD value of drug-treated well. • d. Effects of drugs were estimated with growth stimulation, net growth inhibition and net killing calculated from Tz, C and T values. • e. If T ≥ Tz, cellular response function was calculated by 100x(T-Tz)/(C-Tz), and, if T 〈 Tz, by 100× (T-Tz)/Tz.

HCT-15 (human colon) = test: as above; type: cell-based; conditions: HCT 15 cells, 48 hours with drug
Protocol: as §1, §2, §3, §4, §5

SKMEL-2 (human melanoma) = test: as above; type: cell-based; conditions: SK-MEL-2 cells, 48 hours with drug
Protocol: as §1, §2, §3, §4, §5

SKOV-3 (human ovarian) = test: as above; type: cell-based; conditions: SK-OV-3 cells, 48 hours with drug
Protocol: as §1, §2, §3, §4, §5

XF-498 (human CNS) = test: as above; type: cell-based; conditions: XF-498 cells, 48 hours with drug
Protocol: as §1, §2, §3, §4, §5

[2] = test system: P388 (mouse lymphoid neoplasma cell); test: In vitro antitumor effect against animal leukemia cells, dye exclusion assay (trypan blue); type: cell-based; conditions: 48 hours, dye exclusion test using trypan blue, read-out: IC50 (concentration showing 50 % cell growth inhibition)
From the text: Experimental 2 : In vitro antitumor effects against animal leukemia cells.
• Tumor cell lines : P388 (mouse lymphoid neoplasma cell)
B. Method : Dye Exclusion Assay.

[3] = Acute toxicity test (LD50), Litchfield-Wilcoxon method; type: in vivo; conditions: mouse, in vivo, ICR mice (male), observed during 14 days
ICR mice = test: as above; type: in vivo; conditions: i.p., ICR mice (male), observed during 14 days

Compound | IC50 (Topoisomerase II) [µg/mL] | ED50 [1] [µ g/ml] | ED50 (HCT-15 (human colon)) [µ g/ml] | ED50 (SKMEL-2 (human melanoma)) [µ g/ml] | ED50 (SKOV-3 (human ovarian)) [µ g/ml] | ED50 (XF-498 (human CNS)) [µ g/ml] | IC50 [2] [µg/mL] | also measured
CC=Nc1cc(CO)cc(Nc2c3ccccc3nc3ccccc23)c1 [Example 35, 3-(acridin-9-yl)amino-5-(ethylideneamino)phenylmethanol] | 5 (≈ 14.6 µM) | – | – | – | – | – | – | –
Cc1cc(C)cc(NC(=O)OCc2cc(N)cc(Nc3c4ccccc4nc4ccccc34)c2)c1 [Example 6, [3-(acridin-9-yl)amino-5-amino]benzyl N-(3,5-dimethylphenyl)carbamate] | 3 (≈ 6.49 µM) | 0.72 | 0.33 | 0.40 | 0.36 | 0.37 | – | –
Nc1cc(COC(=O)Nc2cccc(Cl)c2)cc(Nc2c3ccccc3nc3ccccc23)c1 [Example 14, [3-(acridin-9-yl)amino-5-amino]benzyl N-(3-chlorophenyl)carbamate] | 1 (≈ 2.13 µM) | – | – | – | – | – | 1 (≈ 2.13 µM) | –
NCC(=O)Nc1cc(CO)cc(Nc2c3ccccc3nc3ccccc23)c1 [Example 44, N-[3-(acridin-9-yl)amino-5-(hydroxymethyl)phenyl] aminoethaneamide] | 3 (≈ 8.06 µM) | – | – | – | – | – | 0.1 (≈ 0.269 µM) | –
COc1cc(NC(=O)OCc2cc(N)cc(Nc3c4ccccc4nc4ccccc34)c2)cc(OC)c1 [Example 3, [3-(acridin-9-yl)amino-5-amino]benzyl N-(3,5-dimethoxyphenyl)carbamate] | 3 (≈ 6.07 µM) | – | – | – | – | – | 1.1 (≈ 2.22 µM) | –
COc1cccc(NC(=O)OCc2cc(N)cc(Nc3c4ccccc4nc4ccccc34)c2)c1 [Example 2, [3-(acridin-9-yl)amino-5-amino]benzyl N-(3-methoxyphenyl)carbamate] | 3 (≈ 6.46 µM) | 1.12 | 0.97 | 1.08 | 0.68 | 0.71 | – | –
CCCC=Nc1cc(CO)cc(Nc2c3ccccc3nc3ccccc23)c1 [Example 37, 3-(acridin-9-yl)amino-5-(butylideneamino)phenylmethanol] | 5 (≈ 13.5 µM) | 0.90 | 0.35 | 0.89 | 0.93 | 0.36 | – | –
C[C@H](N)C(=O)Nc1cc(CO)cc(Nc2c3ccccc3nc3ccccc23)c1 [Example 45, N-[3-(acridin-9-yl)amino-5-(hydroxymethyl)phenyl] (2S)-2-aminopropaneamide] | 0.5 (≈ 1.29 µM) | 0.01 | 0.86 | 0.25 | 0.21 | 0.88 | 0.05 (≈ 0.129 µM) | LD50 at 14 days ([3]; ip): 730 mg/kg; LD50 at 14 days ([3]; iv): 133 mg/kg
COc1cc(NC(=S)OCc2cc(N)cc(Nc3c4ccccc4nc4ccccc34)c2)cc(OC)c1 [Example 18, [3-(acridin-9-yl)amino-5-amino]benzyl N-(3,5-dimethoxyphenyl)thiocarbamate] | 3 (≈ 5.88 µM) | – | – | – | – | – | 0.7 (≈ 1.37 µM) | –
Nc1cc(COC(=O)Nc2cc(F)cc(F)c2)cc(Nc2c3ccccc3nc3ccccc23)c1 [Example 12, [3-(acridin-9-yl)amino-5-amino]benzyl N-(3,5-difluorophenyl)carbamate] | 0.5 (≈ 1.06 µM) | – | – | – | – | – | – | LD50 (ICR mice): 150 mg/kg
N[C@@H](Cc1ccccc1)C(=O)Nc1cc(CO)cc(Nc2c3ccccc3nc3ccccc23)c1 [Example 46, N-[3-(acridin-9-yl)amino-5-(hydroxymethyl)phenyl] (2S)-2-amino-3-phenylpropaneamide] | 3 (≈ 6.49 µM) | – | – | – | – | – | 0.1 (≈ 0.216 µM) | –
CCC=Nc1cc(CO)cc(Nc2c3ccccc3nc3ccccc23)c1 [Example 36, 3-(acridin-9-yl)amino-5-(propylideneamino)phenylmethanol] | 3 (≈ 8.44 µM) | – | – | – | – | – | – | –
COc1cc(NC(=S)OCc2cc(N)cc(Nc3c4ccccc4nc4ccccc34)c2)cc(OC)c1OC [Example 19, [3-(acridin-9-yl)amino-5-amino]benzyl N-(3,4,5-trimethoxyphenyl)thiocarbamate] | 5 (≈ 9.25 µM) | – | – | – | – | – | – | –
N.N.[Cl][Pt][Cl] [Cisplatin, reference compound] | – | 0.81 | 3.03 | 0.71 | 0.71 | 0.77 | – | –
COc1cccc(NC(=O)OCc2cccc(Nc3c4ccccc4nc4ccccc34)c2)c1 [Example 20, 3-(acridin-9-yl)aminobenzyl N-(3-methoxyphenyl)carbamate] | 3 (≈ 6.67 µM) | – | – | – | – | – | – | –
Nc1cc(COC(=O)Nc2ccccc2)cc(Nc2c3ccccc3nc3ccccc23)c1 [Example 1, [3-(acridin-9-yl)amino-5-amino]benzyl N-phenylcarbamate] | 1 (≈ 2.3 µM) | 0.96 | 0.57 | 0.49 | 1.15 | 0.44 | – | –
COc1cc(NC(=O)OCc2cccc(Nc3c4ccccc4nc4ccccc34)c2)cc(OC)c1 [Example 21, 3-(acridin-9-yl)aminobenzyl N-(3,5-dimethoxyphenyl)carbamate] | 3 (≈ 6.26 µM) | – | – | – | – | – | – | –
COc1cc(NC(=O)OCc2cc(N)cc(Nc3c4ccccc4nc4ccccc34)c2)cc(OC)c1OC [Example 4, [3-(acridin-9-yl)amino-5-amino]benzyl N-(3,4,5-trimethoxyphenyl)carbamate] | 5 (≈ 9.53 µM) | 0.19 | 0.24 | 0.20 | 0.19 | 0.23 | – | –
COc1cc(NC(=O)OCc2cccc(Nc3c4ccccc4nc4ccccc34)c2)cc(OC)c1OC [Example 22, 3-(acridin-9-yl)aminobenzyl N-(3,4,5-trimethoxyphenyl)carbamate] | 5 (≈ 9.81 µM) | – | – | – | – | – | – | –
